The source of these data is patent publication US10144742B2 (Millennium Pharmaceuticals, Inc., priority 2014, dated 2018).

The subject of experiment [1] is PC3 cells. Briefly: PC3 growth inhibition (Cell-titer glo, 72 hours). Conditions: Homo sapiens, PC-3, PC3 cells, 72 hours, Cell-titer glo, read-out: Percent Inhibition (PC3 growth inhibition); for inhibition at 1 µM: compound concentration 1 μM; for inhibition at 1.667 µM: compound concentration 1.667 μM. In kind it is cell-based. A digest of the protocol: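 Compounds in AIM serum-free medium were applied for 72 h at 37 °C, 5% CO2 to PC3 cells plated overnight from RPMI1640 culture. Luminescence after 10 min CellTiter-Glo, normalised to DMSO, gave % viability at 1 μM or 1.667 μM, or GI50/LD50.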

The target in experiment [2] is hNAMPT protein (Homo sapiens (Human), UniProt P43490). Briefly: NAMPT enzyme assay (TR-FRET/HTRF, BodiPY ligand, anti 6His-Tb). Format: binding. Conditions: for IC50: NAMPT IC50 range class, read-out: IC50; for inhibition at 1 µM: read-out: Percent Inhibition. A digest of the protocol:
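Compound or DMSO was incubated for 1 h at room temperature, protected from light, with BodiPY ligand and hNAMPT labelled by terbium anti-6His antibody. The 520 nm to 486 nm emission ratio after 320 nm excitation gave inhibition versus vehicle, from which concentration-response curves yielded IC50.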

Like-named read-outs stand apart in the source and are kept apart here.

Sequence of hNAMPT protein (P43490 whole entry): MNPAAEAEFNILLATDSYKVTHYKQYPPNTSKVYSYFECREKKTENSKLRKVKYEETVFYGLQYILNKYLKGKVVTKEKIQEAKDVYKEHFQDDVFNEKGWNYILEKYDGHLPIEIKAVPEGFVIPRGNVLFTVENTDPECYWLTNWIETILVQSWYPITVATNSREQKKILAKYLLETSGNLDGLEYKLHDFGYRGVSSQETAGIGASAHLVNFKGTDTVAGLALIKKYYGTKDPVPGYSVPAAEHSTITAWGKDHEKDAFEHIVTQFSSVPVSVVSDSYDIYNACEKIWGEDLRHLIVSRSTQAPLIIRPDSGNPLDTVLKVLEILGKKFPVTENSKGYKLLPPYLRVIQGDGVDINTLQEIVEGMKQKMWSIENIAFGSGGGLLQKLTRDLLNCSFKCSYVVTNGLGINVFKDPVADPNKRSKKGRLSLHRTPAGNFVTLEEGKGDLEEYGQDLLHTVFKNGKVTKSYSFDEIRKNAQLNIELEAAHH

In the case of `CC(C)(C)OC(=O)N1CCC(C2CCN(c3nc4ccc(C(=O)NCCn5ccnc5)cc4nc3-c3ccccc3)CC2)CC1` [Compound I-239, tert-Butyl 1′-(6-{[2-(1H-imidazol-1-yl)ethyl]carbamoyl}-3-phenylquinoxalin-2-yl)-4,4′-bipiperidine-1-carboxylate], the inhibition at 1 µM in experiment [1] is 14%; in experiment [2] (compound concentration 1 μM), 25%. In addition, in experiment [2], the IC50 fell in the range of 2000 to 10000 nM.

For `O=C(NCCCn1ccnc1)c1ccc2nc(C3=CCCCC3)c(-c3ccccc3)nc2c1` [Compound I-240, 2-(cyclohex-1-en-1-yl)-N-[3-(1H-imidazol-1-yl)propyl]-3-phenylquinoxaline-6-carboxamide], the inhibition at 1 µM was -8% in experiment [1] and 83% in experiment [2] (compound concentration 1 μM). In experiment [2], the IC50 is 100 to 500 nM.

For the molecule `COc1ccc(-c2nc3cc(C(=O)NCCCn4ccnc4)ccc3nc2-c2ccccc2)cc1` [Compound I-241, N-[3-(1H-imidazol-1-yl)propyl]-3-(4-methoxyphenyl)-2-phenylquinoxaline-6-carboxamide], the inhibition at 1 µM in experiment [1] was determined as 1%; in experiment [2] (compound concentration 1 μM), 57%. Moreover, the IC50 in experiment [2] lay within 500 to 1000 nM.

Consider `O=C(NCCCn1ccnc1)c1ccc2nc(-c3cncnc3)c(-c3ccccc3)nc2c1` [Compound I-242, N-[3-(1H-imidazol-1-yl)propyl]-3-phenyl-2-(pyrimidin-5-yl)quinoxaline-6-carboxamide], for which the inhibition at 1 µM in experiment [1] is -7%; in experiment [2] (compound concentration 1 μM) it was 45%. In addition, the IC50 in experiment [2] lay in the range of 1000 to 2000 nM.

On to `O=C(NCCCn1ccnc1)c1ccc2nc(N3CCC4(COC4)C3)c(-c3ccccc3)nc2c1` [Compound I-243, N-[3-(1H-imidazol-1-yl)propyl]-2-(2-oxa-6-azaspiro[3.4]oct-6-yl)-3-phenylquinoxaline-6-carboxamide], for which the inhibition at 1 µM was -6% in experiment [1] and 62% in experiment [2] (compound concentration 1 μM). For the same molecule, in experiment [2], the IC50 lay in the range of 500 to 1000 nM.

With `O=C(c1ccc2nc(-c3ccc(F)cc3)c(-c3ccc(F)cc3)nc2c1)N1CCc2cn[nH]c2C1` [Compound I-244, [2,3-bis(4-fluorophenyl)quinoxalin-6-yl](1,4,5,7-tetrahydro-6H-pyrazolo[3,4-c]pyridin-6-yl)methanone], the results for the inhibition at 1 µM in experiment [1] and in experiment [2] (compound concentration 1 μM) were 96% and 33%, respectively. In experiment [2], the IC50 was in the range of 2000 to 10000 nM.

For `COc1cc(OC)cc(-c2nc3cc(C(=O)NCCCn4ccnc4)ccc3nc2-c2ccccc2)c1` [Compound I-245, 3-(3,5-dimethoxyphenyl)-N-[3-(1H-imidazol-1-yl)propyl]-2-phenylquinoxaline-6-carboxamide], the inhibition at 1 µM in experiment [1] is -8%; in experiment [2] (compound concentration 1 μM), 62%. Also, in experiment [2], the IC50 is 500 to 1000 nM.

Consider `O=C(NCCCn1ccnc1)c1ccc2nc(-c3cccs3)c(-c3ccccc3)nc2c1` [Compound I-247, N-[3-(1H-imidazol-1-yl)propyl]-3-phenyl-2-(2-thienyl)quinoxaline-6-carboxamide], for which the inhibition at 1 µM is -5% in experiment [1] and 58% in experiment [2] (compound concentration 1 μM). Besides, the IC50 in experiment [2] was 500 to 1000 nM.

For `CC(=O)Nc1cccc(-c2nc3cc(C(=O)NCCCn4ccnc4)ccc3nc2-c2ccccc2)c1` [Compound I-248, 3-(3-acetamidophenyl)-N-[3-(1H-imidazol-1-yl)propyl]-2-phenylquinoxaline-6-carboxamide], the values for the inhibition at 1 µM in experiment [1] and in experiment [2] (compound concentration 1 μM) were 2% and 29%, respectively. Also, in experiment [2], the IC50 lay within 2000 to 10000 nM.

Regarding `O=C(NCCCn1ccnc1)c1ccc2nc(N3CCN4C(=O)CCC4C3)c(-c3ccccc3)nc2c1` (stereo not drawn) [Compound I-250, N-[3-(1H-imidazol-1-yl)propyl]-2-(6-oxohexahydropyrrolo[1,2-a]pyrazin-2(1H)-yl)-3-phenylquinoxaline-6-carboxamide], the inhibition at 1 µM in experiment [1] was -6%; in experiment [2] (compound concentration 1 μM), 86%. For the same molecule, the IC50 in experiment [2] was 100 to 500 nM.

With `O=C(NCCCn1ccnc1)c1ccc2nc(-c3ccccc3)c(-c3ccncc3)nc2c1` [Compound I-251, N-[3-(1H-imidazol-1-yl)propyl]-2-phenyl-3-(pyridin-4-yl)quinoxaline-6-carboxamide], the inhibition at 1 µM in experiment [1] was 1%; in experiment [2] (compound concentration 1 μM) it was 65%. In addition, the IC50 in experiment [2] lay within 100 to 500 nM.

In the case of `O=C(NCCCn1ccnc1)c1ccc2nc(-c3ccccc3)c(-c3ccc4c(c3)CCO4)nc2c1` [Compound I-252, 3-(2,3-dihydro-1-benzofuran-5-yl)-N-[3-(1H-imidazol-1-yl)propyl]-2-phenylquinoxaline-6-carboxamide], the inhibition at 1 µM in experiment [1] turned out to be 2%; in experiment [2] (compound concentration 1 μM), 53%. In addition, the IC50 in experiment [2] is 500 to 1000 nM.

Turning to `CC(C)Oc1nc2ccc(C(=O)NCCCc3ncc[nH]3)cc2nc1-c1ccc(F)cc1` [Compound I-253, 3-(4-Fluorophenyl)-N-[3-(1H-imidazol-2-yl)propyl]-2-isopropoxyquinoxaline-6-carboxamide], the inhibition at 1.667 µM in experiment [1] turned out to be 2%. Also, in experiment [2], the IC50 is < 100 nM and the inhibition at 1 µM was 93%.

As to `CC(=O)Nc1ccc(-c2nc3ccc(C(=O)NCCCn4ccnc4)cc3nc2-c2ccccc2)cc1` [Compound I-254, 2-(4-acetamidophenyl)-N-[3-(1H-iniidazol-1-yl)propyl]-3-phenylquinoxaline-6-carboxamide], the values for the inhibition at 1 µM in experiment [1] and in experiment [2] (compound concentration 1 μM) were -8% and 84%, respectively. Moreover, in experiment [2], the IC50 lay in the range of 100 to 500 nM.

Turning to `O=C(NCCCc1ncc[nH]1)c1ccc2nc(N3CCC(N4CCOCC4)CC3)c(-c3ccc(Cl)cc3)nc2c1` [Compound I-255, 3-(4-chlorophenyl)-N-[3-(1H-imidazol-2-yl)propyl]-2-[4-(morpholin-4-yl)piperidin-1-yl]quinoxaline-6-carboxamide], in experiment [1], the inhibition at 1.667 µM came to 2%. For the same molecule, in experiment [2], the concentration for half-maximal inhibition (IC50) is < 100 nM. Also, the inhibition at 1 µM in experiment [2] (compound concentration 1 μM) was > 99%.

Consider `O=C(NCCCc1ncc[nH]1)c1ccc2nc(N3CCSCC3)c(-c3ccc(F)cc3)nc2c1` [Compound I-256, 3-(4-fluorophenyl)-N-[3-(1H-imidazol-2-yl)propyl]-2-(thiomorpholin-4-yl)quinoxaline-6-carboxamide], for which the inhibition at 1.667 µM in experiment [1] turned out to be 2%. In addition, the IC50 in experiment [2] is < 100 nM. In addition, the inhibition at 1 µM in experiment [2] (compound concentration 1 μM) worked out at 97%.

In the case of `O=C(NCCCn1ccnc1)c1ccc2nc(-c3ccccc3Cl)c(-c3ccccc3)nc2c1` [Compound I-257, 2-(2-chlorophenyl)-N-[3-(1H-imidazol-1-yl)propyl]-3-phenylquinoxaline-6-carboxamide], the inhibition at 1 µM is -8% in experiment [1] and 77% in experiment [2] (compound concentration 1 μM). For the same molecule, in experiment [2], the IC50 fell in the range of 100 to 500 nM.

`O=C(NCCCn1ccnc1)c1ccc2nc(-c3ccc4nccn4c3)c(-c3ccccc3)nc2c1` [Compound I-258, N-[3-(1H-imidazol-1-yl)propyl]-2-(imidazo[1,2-a]pyridin-6-yl)-3-phenylquinoxaline-6-carboxamide]: the inhibition at 1 µM in experiment [1] was -8%; in experiment [2] (compound concentration 1 μM) it was 67%. For the same molecule, the IC50 in experiment [2] lay within 100 to 500 nM.

Consider `CN1CCN(Cc2nc3ccc(C(=O)NCCCn4ccnc4)cc3nc2-c2ccccc2)CC1` [Compound I-259, N-[3-(1H-imidazol-1-yl)propyl]-2-[(4-methylpiperazin-1-yl)methyl]-3-phenylquinoxaline-6-carboxamide], for which the inhibition at 1 µM was -7% in experiment [1] and 44% in experiment [2] (compound concentration 1 μM). Also, the IC50 in experiment [2] is 1000 to 2000 nM.

In the case of `O=C(NCCCn1ccnc1)c1ccc2nc(-c3ccccc3)c(-c3ccccc3)nc2c1` [Compound I-261, N-[3-(1H-imidazol-1-yl)propyl]-2,3-diphenylquinoxaline-6-carboxamide], the inhibition at 1 µM in experiment [1] is -1%; in experiment [2] (compound concentration 1 μM), 67%. Further, in experiment [2], the IC50 lay within 100 to 500 nM.

Turning to `O=C(NCCCn1ccnc1)c1ccc2nc(N3CCCCCC3)c(-c3ccccc3)nc2c1` [Compound I-262, 2-(azepan-1-yl)-N-[3-(1H-imidazol-1-yl)propyl]-3-phenylquinoxaline-6-carboxamide], the inhibition at 1 µM in experiment [1] was -7%; in experiment [2] (compound concentration 1 μM) it was 91%. Moreover, the IC50 in experiment [2] was < 100 nM.

Take `NC(=O)c1cccc(-c2nc3cc(C(=O)NCCCn4ccnc4)ccc3nc2-c2ccccc2)c1` [Compound I-263, 3-(3-carbamoylphenyl)-N-[3-(1H-imidazol-1-yl)propyl]-2-phenylquinoxaline-6-carboxamide]: the inhibition at 1 µM in experiment [1] is 1%; in experiment [2] (compound concentration 1 μM), 81%. Also, the IC50 in experiment [2] fell in the range of 100 to 500 nM.

With `CC(=O)Nc1ccccc1-c1nc2ccc(C(=O)NCCCn3ccnc3)cc2nc1-c1ccccc1` [Compound I-264, 2-(2-acetamidophenyl)-N-[3-(1H-imidazol-1-yl)propyl]-3-phenylquinoxaline-6-carboxamide], the inhibition at 1 µM in experiment [1] was -8%; in experiment [2] (compound concentration 1 μM) it was 41%. Also, the IC50 in experiment [2] was in the range of 1000 to 2000 nM.

As for `O=C(NCCCn1ccnc1)c1ccc2nc(-c3ccccc3)c(N3CCCCCC3)nc2c1` [Compound I-265, 3-(azepan-1-yl)-N-[3-(1H-imidazol-1-yl)propyl]-2-phenylquinoxaline-6-carboxamide], the inhibition at 1 µM turned out to be 11% in experiment [1] and 17% in experiment [2] (compound concentration 1 μM). For the same molecule, in experiment [2], the IC50 was 2000 to 10000 nM.

For the molecule `O=C(c1ccc2nc(-c3ccc(F)cc3)c(-c3ccc(F)cc3)nc2c1)N1CCc2nocc2C1` [Compound I-266, [2,3-bis(4-fluorophenyl)quinoxalin-6-yl](6,7-dihydroisoxazolo[4,3-c]pyridin-5(4H)-yl)methanone], the results for the inhibition at 1 µM in experiment [1] and in experiment [2] (compound concentration 1 μM) were 104% and 15%, respectively. The IC50 in experiment [2] fell in the range of 2000 to 10000 nM.
